Experiment [1] addresses T1, bromodomain protein BRD4 BD2 (Homo sapiens, UniProt O60885).
T1 construct: The proteins BRD4 BD1/BD2 used in the experiment were purchased from Active Motif Company (Cat. No. 31380/31446); purchased Active Motif 31446
The experiment in a line: HTRF in vitro assay, inhibitory activity against BRD4 BD2. The class given is binding. The settings on record: BRD4(2) 30 nM in final system. On the procedure: (§1) The inhibitory activity of the compound against BRD4 BD1 was determined by using Homogeneous Time-Resolved Fluorescence (HTRF).
(§2) The proteins BRD4 BD1/BD2 used in the experiment were purchased from Active Motif Company (Cat. No. 31380/31446); Streptavidin XL-665 (#610SAXLA) and EPIgeneous Binding Domain Kit A (#62BDAPEG) were purchased from Cisbio Bioassays Company, [Lys(5,8,12,16)Ac]H4(1-21)-biotin (#64989), and [Lys(5,8,12,16)Ac]H4(1-25) were products of AnaSpec company; OTX015 and ABBV-075 were purchased from SelleckChem. 384 Well ProxiPlate (#6008280) was purchased from PerkinElmer. The multifunctional microplate reader used for the experimental was a product of PerkinElmer, model: Envision 2104. The experimental water was Millipore-Q pure water.
(§3) 10 mM of stock solution of compound in DMSO was diluted to 1 mM with DMSO and stored, and then diluted 10 times with Binding Domain dilution buffer (purchased from Cisbio Bioassays) for use (the concentration of DMSO in the final system was […]), 1:5 gradient dilution, a total of 5 concentrations.
(§4) 4. Test Method: 1 Batch, 2 Duplicate Wells
(§5) • 1) 5 μL of test compound was transferred to 45 μL of Binding Domain dilution buffer. • 2) 2 μL of 10× compound (4 μL Binding Domain dilution buffer: positive control; 6 μL enzyme buffer (purchased from Cisbio Bioassays): negative control) was transferred to the reaction plate. • 3) 4 μL of 5×BRD4(1) or BRD4(2) (30 nM in final system) was added to the reaction plate. • 4) 4 μL of 5×[Lys(5,8,12,16)Ac]H4(1-21)-biotin was added to the reaction plate, and the plate was covered with a film, and incubated at 37° C. for 30 min. • 5) A detection mixture of SA-XL665 (2×) and anti-H3K9me0-Eu(K) (2×) was prepared in detection buffer (purchased from Cisbio Bioassays). • 6) 10 μL of detection mixture (2×) was added to each well, and incubated for 3 h at room temperature, and the mp value was read using a multi-plate reader Envision. The parameters were set as follows.
On the technique in general: Time-resolved FRET reads energy transfer from a long-lived donor to a nearby acceptor.

For experiment [2], the target named is T2, bromodomain protein BRD4 BD1 (Homo sapiens, UniProt O60885).
T2 construct: The proteins BRD4 BD1/BD2 used in the experiment were purchased from Active Motif Company (Cat. No. 31380/31446); purchased Active Motif 31380
The experiment in a line: HTRF in vitro assay, inhibitory activity against BRD4 BD1. It is filed as binding. Particulars: BRD4(1) 30 nM in final system. The procedure:
In this example, the half inhibitory activity (IC50) of the compounds of the present invention against the bromodomain protein BRD4 BD1 was determined.
as §1, §2, §3, §4, §5

From patent publication US12649735B2 (HAIHE BIOPHARMA CO., LTD., priority 2019, dated 2026) come the findings set out here.

On to “4-(methoxy(phenyl)methyl)-6-methyl-2-(1-(oxetan-3-yl)-1H-pyrazol-4-yl)-1-tolyl-1,6-dihydro-7H-pyrrolo[2,3-c]pyridin-7-one [Compound A70]”, for which the IC50 (as a rule, the concentration needed to halve the response being measured) in experiment [1] is 10 to 100 nM; in experiment [2] it was 100 to 1000 nM.
Taken in the same sequence, the figures for “4-diphenylmethyl-N-ethylamino-6-methyl-7-oxo-6,7-dihydro-1H-pyrrolo[2,3-c]pyridin-2-carboxamide [Compound A29]” were 10 to 100 nM and 100 to 1000 nM.
On the same counts, the results for “6-methyl-7-carbonyl-4-(1-phenylethyl)-N-(1H-pyrazol-4-yl)-6,7-dihydro-1H-pyrrolo[2,3]pyridin-2-carboxamide [Compound A7]” are not above 10 nM and 100 to 1000 nM.
As to “6-methyl-7-carbonyl-4-(1-phenylethyl)-N-(tetrahydro-2H-pyran-4-yl)-6,7-dihydro-1H-pyrrolo[2,3-c]pyridin-2-carboxamide [Compound A6]”, the IC50 is not above 10 nM in experiment [1] and 100 to 1000 nM in experiment [2].
In the case of `Cn1cc(Cc2ccccc2)c2c[nH]cc2c1=O` [Compound A1], the 50% inhibitory concentration (IC50) in experiment [1] lay in the range of 10 to 100 nM; in experiment [2], 100 to 1000 nM.
Taken in the same sequence, the figures for `Cn1cc2c(Cc3ccccc3)cn(C)c(=O)c2c1` [Compound A2] were 10 to 100 nM and 100 to 1000 nM.
On the same counts, the results for `CCNC(=O)n1cc2c(Cc3ccccc3)cn(C)c(=O)c2c1` [Compound A3, 7-benzyl-N-ethyl-5-methyl-4-oxo-4,5-dihydro-2H-pyrrolo[3,4-c]pyridin-2-carboxamide] are 10 to 100 nM and 100 to 1000 nM.
Consider `CCNC(=O)n1cc2c(C(OC)c3ccccc3)cn(C)c(=O)c2c1` (stereo not shown) [Compound A4, N-ethyl-7-(methoxy(phenyl)methyl)-5-methyl-4-oxo-4,5-dihydro-2H-pyrrolo[3,4-c]pyridin-2-carboxamide], for which the IC50 in experiment [1] was in the range of 10 to 100 nM; in experiment [2] it was 100 to 1000 nM.
As to `CCNC(=O)c1cc2c(C(C)c3ccccc3)cn(C)c(=O)c2[nH]1` (stereo not shown) [Compound A5, N-ethyl-6-methyl-7-oxo-4-(1-phenethyl)-6,7-dihydro-1H-pyrrolo[2,3-c]pyridin-2-carboxamide], the 50% inhibitory concentration (IC50) in experiment [1] is not above 10 nM; in experiment [2] it was 100 to 1000 nM.
Taken in the same sequence, the figures for `CC(c1ccccc1)c1cn(C)c(=O)c2[nH]c(C(=O)NC3CC3)cc12` (stereo not shown) [Compound A8, N-cyclopropyl-6-methyl-7-oxo-4-(1-phenethyl)-6,7-dihydro-1H-pyrrolo[2,3-c]pyridin-2-carboxamide] were not above 10 nM and 100 to 1000 nM.
On the same counts, the results for `Cn1cc(C(CCO)c2ccccn2)c2cc(C(=O)NC3CC3)[nH]c2c1=O` (stereo not shown) [Compound A9, N-cyclopropyl-4-(3-hydroxy-1-(pyridin-2-yl)propyl)-6-methyl-7-oxo-6,7-dihydro-1H-pyrrolo[2,3-c]pyridin-2-carboxamide] are 10 to 100 nM and 100 to 1000 nM.
For `CCNC(=O)c1cc2c(Cc3ccccc3)cn(C)c(=O)c2[nH]1` [Compound A10, 4-benzyl-N-ethylamino-6-methyl-7-oxo-6,7-dihydro-1H-pyrrolo[2,3-c]pyridin-2-carboxamide], the values for the IC50 in experiment [1] and in experiment [2] were 10 to 100 nM and 100 to 1000 nM, respectively.
Taken in the same sequence, the figures for `CCNC(=O)c1cc2c(C(C)c3cccnc3)cn(C)c(=O)c2[nH]1` (stereo not shown) [Compound A11, N-ethyl-6-methyl-7-oxo-4-(1-(pyridin-3-yl)ethyl)-6,7-dihydro-1H-pyrrolo[2,3-c]pyridin-2-carboxamide] were not above 10 nM and 100 to 1000 nM.
For the compound `CC(c1ccccc1)c1cn(C)c(=O)c2[nH]c(C(=O)Nc3cnn(C)c3)cc12` (stereo not shown) [Compound A12, 6-methyl-N-(1-methyl-1H-pyrazol-4-yl)-7-oxo-4-(1-phenethyl)-6,7-dihydro-1H-pyrrolo[2,3-c]pyridin-2-carboxamide], the IC50 in experiment [1] is not above 10 nM; in experiment [2] it was 100 to 1000 nM.
On the same counts, the results for `CC(c1ccc2ccccc2c1)c1cn(C)c(=O)c2[nH]c(C(=O)Nc3cnn(C)c3)cc12` (stereo not shown) [Compound A13] are not above 10 nM and 100 to 1000 nM.
Regarding `CC(c1ccccc1)c1cn(C)c(=O)c2[nH]c(-c3cn[nH]c3)cc12` (stereo not shown) [Compound A15, 6-methyl-4-(1-phenethyl)-2-(1H-pyrazol-4-yl)-1,6-dihydro-7H-pyrrolo[2,3-c]pyridin-7-one], the IC50 in experiment [1] is not above 10 nM; in experiment [2] it was 100 to 1000 nM.
`CC(c1ccccc1)c1cn(C)c(=O)c2[nH]c(-c3ccnc(C(F)(F)F)c3)cc12` (stereo not shown) [Compound A16, 6-methyl-4-(1-phenethyl)-2-(2-(trifluoromethyl)pyridin-4-yl)-1,6-dihydro-7H-pyrrolo[2,3-c]pyridin-7-one]: the results for the IC50 in experiment [1] and in experiment [2] were 10 to 100 nM and 100 to 1000 nM, respectively.
As to `CC(c1ccccc1)c1cn(C)c(=O)c2[nH]c(-c3cnn(C4COC4)c3)cc12` (stereo not shown) [Compound A17, 6-methyl-2-(1-(oxetan-3-yl)-1H-pyrazol-4-yl)-4-(1-phenethyl)-1,6-dihydro-7H-pyrrolo[2,3-c]pyridin-7-one], the IC50 is not above 10 nM in experiment [1] and 100 to 1000 nM in experiment [2].
As to `CC(c1ccccc1)c1cn(C)c(=O)c2[nH]c(-c3cnn(C)c3)cc12` (stereo not shown) [Compound A18, 6-methyl-2-(1-methyl-1H-pyrazol-4-yl)-4-(1-phenethyl)-1,6-dihydro-7H-pyrrolo[2,3-c]pyridin-7-one], the concentration for half-maximal inhibition (IC50) in experiment [1] is not above 10 nM; in experiment [2], 100 to 1000 nM.
Taken in the same sequence, the figures for `CC(c1ccc(F)cc1)c1cn(C)c(=O)c2[nH]c(-c3cn[nH]c3)cc12` (stereo not shown) [Compound A19, 4-(1-(4-fluorophenyl)ethyl)-6-methyl-2-(1H-pyrazol-4-yl)-1,6-dihydro-7H-pyrrolo[2,3-c]pyridin-7-one] were not above 10 nM and 100 to 1000 nM.
In the case of `CC(c1ccccc1)c1cn(C)c(=O)c2[nH]c(-c3cnoc3)cc12` (stereo not shown) [Compound A20, 2-(isoxazol-4-yl)-6-methyl-4-(1-phenethyl)-1H-pyrrolo[2,3-c]pyridin-7(6H)-one], the IC50 in experiment [1] lay in the range of 10 to 100 nM; in experiment [2] it was 100 to 1000 nM.
Taken in the same sequence, the figures for `Cc1nocc1-c1cc2c(C(C)c3ccccc3)cn(C)c(=O)c2[nH]1` (stereo not shown) [Compound A21] were 10 to 100 nM and 100 to 1000 nM.
With `CCNC(=O)c1cc2c(C(C)c3ccc4ccccc4c3)cn(C)c(=O)c2[nH]1` (stereo not shown) [Compound A22, N-ethyl-6-methyl-4-(1-(naphthalen-2-yl)ethyl)-7-oxo-6,7-dihydro-1H-pyrrolo[2,3-c]pyridin-2-carboxamide], the half-maximal inhibitory concentration (IC50) was in the range of 10 to 100 nM in experiment [1] and 100 to 1000 nM in experiment [2].
In the case of `CCNC(=O)c1cc2c(C(O)c3c(C)cccc3C)cn(C)c(=O)c2[nH]1` (stereo not shown) [Compound A23, (4-(2,6-dimethylphenyl)(hydroxy)methyl)-N-ethyl-6-methyl-7-oxo-6,7-dihydro-1H-pyrrolo[2,3-c]pyridin-2-carboxamide], the IC50 is 10 to 100 nM in experiment [1] and 100 to 1000 nM in experiment [2].
Taken in the same sequence, the figures for `CCNC(=O)c1cc2c(/C(=C/c3ccccc3)c3ccccc3)cn(C)c(=O)c2[nH]1` [Compound A24, (E)-4-(1,2-diphenylvinyl)-N-ethyl-6-methyl-7-oxo-6,7-dihydro-1H-pyrrolo[2,3-c]pyridin-2-carboxamide] were 10 to 100 nM and 100 to 1000 nM.
Taken in the same sequence, the figures for `CCNC(=O)c1cc2c(C(C)c3ccc4ccccc4c3)cn(C)c(=O)c2[nH]1` (stereo not shown) [Compound A25] were 10 to 100 nM and 100 to 1000 nM.
Taken in the same sequence, the figures for `CCNC(=O)c1cc2c(C(c3ccccc3)c3ccccc3O)cn(C)c(=O)c2[nH]1` (stereo not shown) [Compound A28] were 10 to 100 nM and 100 to 1000 nM.
Regarding `CCNC(=O)c1cc2c(-c3nc4ncccc4n3-c3cc(C)c(F)c(C)c3)cn(C)c(=O)c2[nH]1` [Compound A30, N-ethyl-4-(1-(4-fluoro-3,5-dimethylphenyl)-1H-imidazo[4,5-b]pyridin-2-yl)-6-methyl-7-oxo-6,7-dihydro-1H-pyrrolo[2,3-c]pyridin-2-carboxamide], the half-inhibitory concentration (IC50) is not above 10 nM in experiment [1] and 10 to 100 nM in experiment [2].
On the same counts, the results for `CCNC(=O)c1cc2c(-c3nc4ncccc4n3-c3c(C)cccc3C)cn(C)c(=O)c2[nH]1` [Compound A31, 4-(1-(2,6-dimethylphenyl)-1H-imidazo[4,5-b]pyridin-2-yl)-N-ethyl-6-methyl-7-oxo-6,7-dihydro-1H-pyrrolo[2,3-c]pyridin-2-carboxamide] are not above 10 nM and 10 to 100 nM.
